“And” between values parts separate entries of the source, which are not always exact repeats. Identical values can stand only once.
Test system: self-administration (addictive potential)
Experiment: I.v. self-administration of CP612, between-session progressive ratio and demand curve
Experimental: We tested the addictive potential of CP612 by examining the extent to which rats are willing to work to obtain CP612. Rats were initially trained to self-administer either saline, morphine (500 μg/kg/i.v. infusion), or 1 of 3 different doses of CP612 (75, 150, or 300 μg/kg/i.v. infusion) for 4 days at fixed ratio 1 (FR1, where 1 nose poke delivers 1 infusion).
During the second phase, the ratio to obtain an infusion increased geometrically every other day (FR1, FR3, FR6, FR12, FR24, FR48, and FR96).
Data (number of self-infusions) were also fitted in an economic-demand curve, which provides an estimate of the motivation to obtain drugs and their addictive potential ([20]). We measured elasticity (α), which is the relative change in consumption as a function of price (i.e., ratio of nose pokes required to obtain an infusion). Behavior is considered “inelastic” when consumption is insensitive to price and “elastic” when consumption is sensitive to price. We also measured Pmax, which is the price at which intake switches from inelastic to elastic. […] (Figure 8B).
Rats not immediately anesthetized were eliminated from the study.
Following this initial acquisition phase at FR1, the ratio to obtain the drug was increased geometrically every other day: FR3 (3 nose pokes are required to obtain 1 infusion of morphine), FR6, FR12, FR24, FR48, and FR96. This allows for analysis of drug consumption as a function of “price” using demand curves for behavioral economics, which can estimate the motivation to obtain drugs and their “addictive potential” ([20]). For this, data from each rat were fitted to the equation log Q = log Q0 + k (e ^–α(Q0 ^C) – 1), where Q represents consumption (number of self-infusions), and Q0 represents the level of consumption at the lowest price. C represents price for the drug (i.e., the ratio), and k is set to a constant accounting for the estimated range of consumption in logarithmic units (k = 4 in these studies). The symbol α is the relative change in consumption across changes in price (ratio). Behavior is considered “inelastic” when consumption is insensitive to price (i.e., the curve is flat, and consumption is maintained despite increases in price), and it switches to “elastic” when consumption is sensitive to price (i.e., when the curve is steep and consumption declines with increases in price). […] We also compared groups for their average intake in the consumption-price curves by measuring α (elasticity) and Pmax.

N[C@H](CNC(=O)C1(c2ccc(Cl)cc2)CCCC1)c1ccc(C(=O)Nc2ccncc2)cc1 [CP612]
AVG Latency (FR1_D1 to D4) (CP612-High, individual rat): 0.277 and 0.6 and 2.3 and 1.8 and 0.8 and 0.9 and 1.0
AVG Latency (FR1_Last 2 FR1 days) (CP612-High, individual rat): 0.051 and 0.179 and 0.9 and 1.8 and 0.219 and 0.171
AVG Latency (FR1_Last 4 FR1 days) (CP612-High, individual rat): 0.076 and 0.283 and 1.5 and 1.8 and 0.8 and 0.9 and 0.53
AVG Latency (FR3) (CP612-High, individual rat): 1.2 and 0.116 and 2.8 and 0.5 and 0.236 and 1.4 and 0.326
AVG Latency (FR6) (CP612-High, individual rat): 0.64 and 0.4 and 0.643 and 1.9 and 0.8 and 2.5 and 0.6
AVG Latency (FR12) (CP612-High, individual rat): 14.4 and 2.6 and 0.5 and 4.0 and 0.6 and 2.1
AVG Latency (FR24) (CP612-High, individual rat): 1.9 and 0.9 and 0.3 and 0.6 and 2.3 and 1.3
AVG Latency (FR48) (CP612-High, individual rat): 14.3 and 0.9 and 1.1 and 1.9 and 18.8 and 1.2
AVG Latency (FR96) (CP612-High, individual rat): 13.6 and 1.5 and 0.9 and 12.9 and 2.4 and 0.8
D1 Latency (FR1) (CP612-High, individual rat): 0.857 and 1.7 and 5.4 and 2.9 and 0.6 and 0.743
D1 Latency (FR3) (CP612-High, individual rat): 2.0 and 0.108 and 0.043 and 0.6 and 0.3 and 0.19 and 0.232
D1 Latency (FR6) (CP612-High, individual rat): 0.65 and 0.1 and 0.9 and 0.7 and 0.8 and 3.8 and 0.275
D1 Latency (FR12) (CP612-High, individual rat): 27.0 and 1.2 and 0.527 and 5.7 and 0.283 and 3.2 and 2.2
D1 Latency (FR24) (CP612-High, individual rat): 1.3 and 0.7 and 0.338 and 0.9 and 1.7 and 1.4
D1 Latency (FR48) (CP612-High, individual rat): 16.8 and 0.4 and 0.255 and 0.142 and 1.1 and 36.4 and 0.743
D1 Latency (FR96) (CP612-High, individual rat): 4.4 and 1.8 and 0.643 and 3.1 and 3.3 and 0.647 and 0.7
D2 Latency (FR1) (CP612-High, individual rat): 0.077 and 0.4 and 2.0 and 0.6 and 2.2 and 0.9
D2 Latency (FR3) (CP612-High, individual rat): 0.5 and 0.125 and 5.6 and 0.4 and 0.17 and 2.6
D2 Latency (FR6) (CP612-High, individual rat): 0.6 and 0.7 and 0.4 and 3.1 and 0.8 and 1.2 and 0.9
D2 Latency (FR12) (CP612-High, individual rat): 1.8 and 4.1 and 0.5 and 2.3 and 0.9 and 1.0 and 2.9
D2 Latency (FR24) (CP612-High, individual rat): 2.5 and 1.2 and 0.257 and 0.283 and 0.355 and 2.9
D2 Latency (FR48) (CP612-High, individual rat): 11.8 and 1.4 and 1.9 and 3.7 and 1.1 and 1.2 and 1.7
D2 Latency (FR96) (CP612-High, individual rat): 22.7 and 1.2 and 1.1 and 1.6 and 0.9 and 2.4
D3 Latency (FR1) (CP612-High, individual rat): 0.125 and 0.22 and 1.4 and 2.0 and 0.063 and 1.3 and 0.185
D4 Latency (FR1) (CP612-High, individual rat): 0.05 and 0.138 and 0.457 and 1.7 and 0.375 and 0.547 and 0.158
last Latency (FR1) (CP612-High, individual rat): 0.052 and 0.138 and 0.457 and 1.7 and 0.375 and 0.547 and 0.158
last-1 Latency (FR1) (CP612-High, individual rat): 0.05 and 0.22 and 1.4 and 2.0 and 0.063 and 1.3 and 0.185
last-2 Latency (FR1) (CP612-High, individual rat): 0.125 and 0.4 and 2.0 and 0.6 and 2.2 and 0.9
last-3 Latency (FR1) (CP612-High, individual rat): 0.077 and 0.4 and 2.0 and 2.9 and 0.6 and 0.9
AVG Latency (FR1_D1 to D4) (CP612-Low, individual rats): 4.9 and 0.7 and 2.4 and 1.7 and 1.1
AVG Latency (FR1_Last 2 FR1 days) (CP612-Low, individual rats): 0.358 and 0.6 and 0.284 and 0.9 and 0.159 and 1.0 and 0.2 and 1.2
AVG Latency (FR1_Last 4 FR1 days) (CP612-Low, individual rats): 1.9 and 0.8 and 0.222 and 0.443 and 1.2 and 0.5 and 0.6
AVG Latency (FR3) (CP612-Low, individual rats): 0.8 and 1.6 and 4.5 and 0.452 and 0.377 and 4.0 and 0.095 and 0.182
AVG Latency (FR6) (CP612-Low, individual rats): 1.5 and 1.4 and 2.2 and 0.323 and 0.9 and 0.163 and 0.233
AVG Latency (FR12) (CP612-Low, individual rats): 1.6 and 0.566 and 0.8 and 0.4 and 2.4 and 1.9 and 1.0
AVG Latency (FR24) (CP612-Low, individual rats): 3.5 and 0.6 and 1.0 and 0.8 and 0.426 and 5.1 and 1.2 and 0.7
AVG Latency (FR48) (CP612-Low, individual rats): 0.7 and 2.3 and 2.2 and 0.372 and 0.844 and 2.6 and 0.335 and 1.6
AVG Latency (FR96) (CP612-Low, individual rats): 1.1 and 0.176 and 4.5 and 0.551 and 1.2 and 0.0585 and 2.6 and 0.259
D1 Latency (FR1) (CP612-Low, individual rats): 12.2 and 0.368 and 2.4 and 7.3 and 1.0 and 3.8 and 1.9 and 0.7
D1 Latency (FR3) (CP612-Low, individual rats): 0.425 and 0.5 and 1.0 and 0.458 and 0.7 and 4.6 and 0.155 and 0.173
D1 Latency (FR6) (CP612-Low, individual rats): 1.3 and 2.2 and 0.473 and 0.533 and 0.9 and 0.183 and 0.32
D1 Latency (FR12) (CP612-Low, individual rats): 0.9 and 2.3 and 0.7 and 1.3 and 0.66 and 1.0 and 0.6
D1 Latency (FR24) (CP612-Low, individual rats): 6.2 and 0.9 and 1.5 and 0.7 and 8.8 and 2.1 and 0.19
D1 Latency (FR48) (CP612-Low, individual rats): 1.1 and 1.6 and 3.8 and 0.332 and 0.655 and 0.6 and 0.368 and 0.073
D1 Latency (FR96) (CP612-Low, individual rats): 0.8 and 0.108 and 8.1 and 0.57 and 0.062 and 1.6 and 0.143
D2 Latency (FR1) (CP612-Low, individual rats): 4.7 and 1.8 and 0.14 and 0.425 and 1.0 and 0.13 and 1.5 and 0.027
D2 Latency (FR3) (CP612-Low, individual rats): 1.1 and 2.8 and 7.9 and 0.445 and 0.067 and 3.5 and 0.035 and 0.2
D2 Latency (FR6) (CP612-Low, individual rats): 1.7 and 0.562 and 4.0 and 0.658 and 0.112 and 0.9 and 0.143 and 0.147
D2 Latency (FR12) (CP612-Low, individual rats): 2.2 and 0.8 and 0.4 and 0.355 and 0.1 and 3.4 and 2.9 and 1.5
D2 Latency (FR24) (CP612-Low, individual rats): 0.76 and 0.282 and 0.4 and 0.9 and 0.148 and 1.5 and 0.188 and 1.2
D2 Latency (FR48) (CP612-Low, individual rats): 0.337 and 3.0 and 0.6 and 0.4 and 1.0 and 4.6 and 0.3 and 3.2
D2 Latency (FR96) (CP612-Low, individual rats): 1.5 and 0.245 and 0.8 and 0.533 and 1.6 and 0.055 and 3.5 and 0.375
D3 Latency (FR1) (CP612-Low, individual rats): 2.1 and 0.145 and 0.175 and 0.9 and 0.5 and 2.5 and 0.8 and 0.017
D4 Latency (FR1) (CP612-Low, individual rats): 0.433 and 0.6 and 0.143 and 1.0 and 0.3 and 0.258 and 0.24 and 2.0
last Latency (FR1) (CP612-Low, individual rats): 0.283 and 0.653 and 0.332 and 0.9 and 0.03 and 1.7 and 0.163 and 0.342
last-1 Latency (FR1) (CP612-Low, individual rats): 0.433 and 0.6 and 0.237 and 1.0 and 0.3 and 0.258 and 0.24 and 2.0
last-2 Latency (FR1) (CP612-Low, individual rats): 2.1 and 0.145 and 0.143 and 0.9 and 0.5 and 2.5 and 0.8 and 0.017
last-3 Latency (FR1) (CP612-Low, individual rats): 4.7 and 1.8 and 0.175 and 0.425 and 1.0 and 0.13 and 0.8 and 0.017
AVG Latency (FR1_D1 to D4) (CP612-Mid, individual rat): 1.3 and 0.461 and 0.5 and 1.6
AVG Latency (FR1_Last 2 FR1 days) (CP612-Mid, individual rat): 0.475 and 0.9 and 0.261 and 0.6 and 3.4
AVG Latency (FR1_Last 4 FR1 days) (CP612-Mid, individual rat): 0.356 and 0.538 and 0.317 and 0.363 and 1.9
AVG Latency (FR3) (CP612-Mid, individual rat): 0.8 and 0.466 and 1.2 and 0.0825
AVG Latency (FR6) (CP612-Mid, individual rat): 0.633 and 1.0 and 0.8 and 3.0 and 4.9
